Assay results reported in patent US4659804A, “(Bis-1,7-S-acetamidomethyl-L-cysteine)salmon calcitonin” (Armour Pharmaceutical Company, priority 1984, dated 1987).

Test system: serum calcium concentration
Assay: Biological assay of calcitonin analogs in vivo: reduction of serum calcium concentration, 2×2 parallel line assay
Design: species or system Rats
Conditions: standard salmon calcitonin used in the assay
Procedure: The biological potency of [1,7-Di-Cys(Acm)]salmon calcitonin was determined by comparing the reduction of serum calcium concentration which followed administration by graded doses of [1,7-Di-Cys(Acm)]SCT and synthetic salmon calcitonin standard. Rats were divided into four groups of seven animals, and each group was assigned at random to a dose of standard or test solution. Low and high doses were chosen from the linear portion of the dose-response curve. For the salmon calcitonin standard, the values were 0.7 and 2.1 mcg. peptide/100 g. body weight (BW). This dose approximates 3 and 9 MU/100 g. BW. Peptides were given by subcutaneous injection (0.2 ml/100 g. BW) and blood was withdrawn 1 hour later for serum calcium determination. Sera are processed and analyzed within two hours of collection. […]. Results were analyzed by a 2×2 parallel line assay [Gaddum, J. H., J. Pharm. Pharmacol., 6, 345 (1953)]. The standard salmon calcitonin used was independently determined to contain greater than 4,000 IU/mg. [1,7-Di-Cys(Acm)]SCT assayed at 4250 IU/mg.

CC(C)C[C@H](NC(=O)[C@H](CCCCN)NC(=O)CNC(=O)[C@H](CC(C)C)NC(=O)[C@@H](NC(=O)[C@@H]1CSSC[C@H](N)C(=O)N[C@@H](CO)C(=O)N[C@@H](CC(N)=O)C(=O)N[C@@H](CC(C)C)C(=O)N[C@@H](CO)C(=O)N[C@@H]([C@@H](C)O)C(=O)N1)C(C)C)C(=O)N[C@@H](CO)C(=O)N[C@@H](CCC(N)=O)C(=O)N[C@@H](CCC(=O)O)C(=O)N[C@@H](CC(C)C)C(=O)N[C@@H](Cc1c[nH]cn1)C(=O)N[C@@H](CCCCN)C(=O)N[C@@H](CC(C)C)C(=O)N[C@@H](CCC(N)=O)C(=O)N[C@H](C(=O)N[C@@H](Cc1ccc(O)cc1)C(=O)N1CCC[C@H]1C(=O)N[C@@H](CCCNC(=N)N)C(=O)N[C@H](C(=O)N[C@@H](CC(N)=O)C(=O)N[C@H](C(=O)NCC(=O)N[C@@H](CO)C(=O)NCC(=O)N[C@H](C(=O)N1CCC[C@H]1C(N)=O)[C@@H](C)O)[C@@H](C)O)[C@@H](C)O)[C@@H](C)O [standard salmon calcitonin, Salmon calcitonin]
biological potency of the standard, independently determined: greater than 4,000 IU/mg
